Legend:
Format in all cases: cell-based
[1] = tested on: Jurkat human leukemia T cells; assay: Inhibition of Jurkat human leukemia T cell proliferation (MTT reduction); conditions: for % INHIBITION of Jurkat human leukemia T cell proliferation: 100 μg/ml sequence, 48 h, 2.5×10^5 cells/ml
Method: Cells were seeded in 6 (1 ml/well), 24 (0.5 ml/well) or 96 (0.1 ml/well) well flat-bottom microplates and were maintained at 37° C. in a 5% CO2 atmosphere. Unless stated otherwise, 2.5×10^5 cells/ml were incubated with 0 μg/ml (control) and 100 μg/ml (treated) of 2 to 45 base sequences containing A, C, G and T for 48 h.
MTT was measured at a wavelength of 570 nm using a multiplate spectrophotometer reader (ELX800, Bio-TEK Instruments Inc., Winooski, Vt.).
Jurkat human leukemia T cells are an atypical multi-drug resistant human suspension tumor cell model.

[2] = tested on: Jurkat human leukemia T cells; assay: Cell cycle stage in Jurkat cells (propidium iodide flow cytometry); conditions: Jurkat, 24 h, 100 μg/ml
Method: Cell cycle stage was determined using a […]™ PLUS DNA commercial kit (Becton Dickinson). Briefly, nuclei from cells were obtained by dissolving the cell membrane in a nonionic detergent, eliminating the cell cytoskeleton and nuclear proteins with trypsin, digesting the cellular RNA with RNase and stabilizing the nuclear chromatin with spermine. Propidium iodide was added to the cell nuclei and their fluorescence was analyzed in a flow cytometer equipped with electronic doublet discrimination capability (FACSCalibur, Becton Dickinson, San Jose, Calif.). Accumulation of cells in G0/G1, early S (SE), mid S (SM), late S (SL) or G2/M phases of the cell cycle was analyzed using MODFIT LT software (Verity Software House Inc., Topsham, Mass.).
Exponentially growing Jurkat human leukemia T cells (Table 28) and MCF-7 human breast cancer cells (5×10^5 cells/ml) (Table 29) were incubated for 24 h with 2, 6, 15, 18, 27 and 45 base sequences containing A, C, G and T. The cells were collected and centrifuged and cell cycle stage was determined.
Jurkat human cell leukemia T cells (1×10^6 cells/ml) were incubated for 24 h with 6 base GT SEQ ID NO:25, conplementary 6 base AC SEQ ID NO:79 and 6 base GT SEQ ID NO:25+6 base AC SEQ ID NO:79. GT SEQ ID NO:25 and AC SEQ ID NO:79 were hybridized by mixing the oligonucleotides (1:1) and heating for 10 minutes at 65° C. As controls, GT SEQ ID NO:25 and AC SEQ ID NO:79 were heated for 10 minutes at 65° C. (Table 30).

[3] = tested on: THP-1 human acute monocytic leukemia cells; assay: Cytokine production by THP-1 cells (ELISA); conditions: THP-1, 1×10^6 cells, 100 μg/ml, 48 h; for ↑ IL-12 (fold increase treated vs control cells): p70 complex and free p40
Method: (§1) Unless stated otherwise, 1×10^6 cells were incubated with 100 μg/ml of each of the sequences tested for 48 h at 37° C. in 5% CO2. Production of cytokines IL-6, IL-10, IL-12, IL-1beta and TNF-alpha was determined in pg/ml in 100 μl of culture supernatant using the appropriate commercial ELISA (BioSource, Camarillo Calif.). The IL-12 ELISA measures both IL-12 p70 complex and free p40 subunit. Results are expressed as the “fold” (×) increase in cytokine production by treated cells compared to control cells.
THP-1 human acute monocytic leukemia cells were incubated with 2, 3, 6, 9, 12, 14, 15 and 18 base GT sequences and production of the cyotkine IL-6 was determined (Table 35).
THP-1 human acute monocytic leukemia cells were incubated with 6 base GT, AG, CG, GG, AGT and CGT sequences and production of the cytokines IL-12 and IL-6 was determined (Table 36).
THP-1 human acute monocytic leukemia cells were incubated with 6 base GT sequences, having either an oxygen (phosphodiester) or a sulfur (phosphorothioate) as the nonbridging atom on the phosphate groups and production of the cytokine IL-12 was determined (Table 39).
THP-1 human acute monocytic leukemia cells were incubated with 6 base GT SEQ ID NO:25, having either an oxygen (phosphodiester) or a sulfur (phosphorothioate) as the nonbridging atom on the phosphate groups and production of the cytokine IL-12 was determined (Table 40).

[4] = tested on: human peripheral blood mononuclear cells; assay: Cytokine production by human PBMC (ELISA); conditions: PBMC of 7 healthy humans, 100 μg/ml, 48 h
Method: as §1
Peripheral blood mononuclear cells (hereinafter, “PBMCs”) were isolated from 7 healthy humans by Ficoll-Hypaque (Amersham Pharmacia Biotech, Baie d'Urfée, Québec, Canada) by density gradient centrifugation of whole blood. PBMCs were incubated with 6 base GT, AGT, CGT, AG, CG and GG sequences and production of the cytokines IL-1beta, IL-6, IL-10 and IL-12 were determined.

Row | Compound | % INHIBITION of Jurkat human leukemia T cell proliferation [1] | ↑ IL-6 (fold increase treated vs control cells) [3] | ↑ IL-12 (fold increase treated vs control cells) [3] | further results
1 | N.N.[Cl][Pt][Cl] [Cisplatin, reference compound] |  |  |  | % INHIBITION of Jurkat proliferation, Cisplatin 0.1 μg/ml ([1]; cisplatin 0.1 μg/ml, alone or with sequence at 1.0 μg/ml): 7%; % INHIBITION of Jurkat proliferation, Cisplatin 1.0 μg/ml ([1]; cisplatin 1.0 μg/ml, alone or with sequence at 1.0 μg/ml): 29%; % INHIBITION of Jurkat proliferation, Cisplatin 10.0 μg/ml ([1]; cisplatin 10.0 μg/ml, alone or with sequence at 1.0 μg/ml): 73%
2 | AAAGAGGGGCATGACCCGGTGCGGGGGTTCTTGCACTCGGCATAG (unmodified DNA) [BCG A-1, reference compound] | 6% | 2.6x | 1.9x | % of cells in phase: G0/G1 [2]: 19.8%; % of cells in phase: G2/M [2]: 12.0%; % of cells in phase: SE [2]: 31.7%; % of cells in phase: SL [2]: 14.0%; % of cells in phase: SM [2]: 22.5%; Arrest (cell cycle) [2]: Mid SM
3 | ACGAGACCACCATCGTCGAGGGCGCCGGTGACACCGACGCCATCG (unmodified DNA) [BCG A-6, reference compound] | 21% | 3.9x | 2.1x | 
4 | ACGCCGACGTCGTCTGTGGTGGGGTGTCTACCGCCAACGCGACGG (unmodified DNA) [BCG M-3, reference compound] | 22% | 2.5x | 1.6x | 
5 | AGGTGA [SEQ ID NO:31] | 10% | 4.9x | 1.9x | % of cells in phase: G0/G1 [2]: 35.2%; % of cells in phase: G2/M [2]: 17.1%; % of cells in phase: SE [2]: 29.1%; % of cells in phase: SL [2]: 8.2%; % of cells in phase: SM [2]: 10.4%; Arrest (cell cycle) [2]: Mid SE
6 | CCGTGG [SEQ ID NO:34] | 37% | 10.8x | 0.0x | 
7 | CGACTACAACGGCTGGGATATCAACACCCCGGCGTTCGAGTGGTA (unmodified DNA) [BCG ALPHA-1, reference compound] | 10% | 2.1x | 1.1x | 
8 | CGGTGC [SEQ ID NO:38] | 16% | 6.9x | 0.2x | 
9 | GAGTGA [SEQ ID NO:32] | 24% | 5.8x | 1.8x | 
10 | GCCGAGAAGGTGCGCAACCTGCCGGCTGGCCACGGACTGAACGCT (unmodified DNA) [BCG A-7, reference compound] | 4% |  | 0.5x | 
11 | GGAGGG (unmodified DNA) [SEQ ID NO:47] | 14% |  |  | 
12 | GGGTCC [SEQ ID NO:35] | 20% | 21.3x | 1.9x | 
13 | GGGTCT [SEQ ID NO:33] | 15% | 3.1x | 1.2x | 
14 | GGGTGGG (unmodified DNA) [SEQ ID NO:63] | 28% |  |  | 
15 | GGGTGGT (unmodified DNA) [SEQ ID NO:65] | 48% |  |  | 
16 | GGGTTT [SEQ ID NO:40] | 31% | 14.0x | −1.2x | 
17 | GGTT (unmodified DNA) [SEQ ID NO:58] | 37% |  |  | 
18 | GTGGGG [SEQ ID NO:48] | 26% |  |  | 
19 | GTGT (unmodified DNA) [SEQ ID NO:54] | 42% |  |  | 

Row | Compound | % INHIBITION of Jurkat human leukemia T cell proliferation [1] | ↑ IL-6 (fold increase treated vs control cells) [3] | ↑ IL-12 (fold increase treated vs control cells) [3] | further results
20 | GTGTGTGTG (chemistry not given here) [SEQ ID NO:12] | 47% | 5.4x |  | 
21 | GTGTGTGTGTGT [SEQ ID NO:14] | 51% | 1.3x |  | IL-1 beta fold increase: mean +/− SD [4]: 1.1 +/− 0.2 fold increase; IL-6 fold increase: mean +/− SD [4]: 2.0 +/− 1.5 fold increase; IL-10 fold increase: mean +/− SD [4]: 1.0 +/− 0.1 fold increase; IL-12 fold increase: mean +/− SD [4]: 2.0 +/− 1.1 fold increase
22 | GTGTGTGTGTGTGTG (unmodified DNA) [SEQ ID NO:16] | 58% | 2.6x |  | 
23 | GTGTGTGTGTGTGTGTGTGTG (unmodified DNA) [SEQ ID NO:20] | 46% |  |  | 
24 | GTGTGTGTGTGTGTGTGTGTGTGT [SEQ ID NO:22] | 56% |  |  | 
25 | GTGTGTGTGTGTGTGTGTGTGTGTGTG (DNA, backbone not given here; further chemistry not fully specified) [SEQ ID NO:1 phosphorothioate] |  |  |  | % of cells in phase: G0/G1 [2]: 33.7%; % of cells in phase: G2/M [2]: 24.5%; % of cells in phase: SE [2]: 17.6%; % of cells in phase: SL [2]: 11.0%; % of cells in phase: SM [2]: 13.2%; Arrest (cell cycle) [2]: None
26 | TCTCTCTCTCTCTCTCTCTCTCTCTCT (unmodified DNA) [SEQ ID NO:6] | 0% |  |  | 
27 | TGGGTGG (unmodified DNA) [SEQ ID NO:64] | 55% |  |  | 
28 | TGTG (unmodified DNA) [SEQ ID NO:59] | 52% |  |  | 
29 | TGTGTGTGT (unmodified DNA) [SEQ ID NO:11] | 45% | 5.4x |  | 
30 | TGTGTGTGTGTGTG (chemistry not given here) [SEQ ID NO:15] | 47% | 1.0x |  | proliferation, cell cycle arrest and apoptosis of Jurkat T cells (summary in words) ([1]; M. phlei murA derived sequences): did not inhibit proliferation of, induce cell cycle arrest in or induce apoptosis of Jurkat T cells
31 | TGTGTGTGTGTGTGTGTGTGT (unmodified DNA) [SEQ ID NO:19] | 60% |  |  | 
32 | TGTGTGTGTGTGTGTGTGTGTGTG [SEQ ID NO:21] | 54% |  |  | 
33 | TGTGTGTGTGTGTGTGTGTGTGTGTG (DNA TGTGTGTGTGTGTGTGTGTGTGTGTGT; unmodified DNA) [SEQ ID NO:5] | 45% |  |  | 
34 | TGTT (unmodified DNA) [SEQ ID NO:57] | 32% |  |  | 
35 | TTGG (unmodified DNA) [SEQ ID NO:55] | 44% |  |  | 
36 | TTGT (unmodified DNA) [SEQ ID NO:53] | 25% |  |  | 
37 | TTGTGG [SEQ ID NO:39] | 35% | 6.6x | 0.0x | % INHIBITION of Jurkat proliferation at suboptimal concentration ([1]; 5.0 μg/ml of each 6 base sequence, alone or two together): 4%

Source: patent US20070213291A1, “Therapeutically useful synthetic oligonucleotides” (priority 1999, published 2007)
